Test results as given in US5686424A, “2-oxoethyl derivatives as immunosuppressants” (Miles Inc., priority 1995, dated 1997).
Where a name gives a salt, the structure may show the parent alone. Read-outs that look alike come from different tables or passages of the source.

Columns and labels:
NF-AT = NF-AT Inhibition Assay Directed β-Galactosidase Expression in FGL-5 cells; assay type: cell-based
Method: 3) NF-AT Assay Stimulation of T-cells leads to the appearance of several transcription factors, including one designated "NF-AT". These factors are involved in regulation of gene expression required for immunologic activation. Some of these transcription factors appear to have functions in a wide variety of cell types. By contrast, NF-AT is found primarily in T-cells and its role is restricted to early gene activation. […] Inhibition of NF-AT activity is measured using FGL-5 cells. FGL-5 is a cloned line of stably transfected Jurkat T-cells that contain two construct in which three tandem copies of the NF-AT DNA binding site direct transcription of both murine CD8 and the lacZ gene, encoding β-galactosidase ([…] et al., 1990, Genes & Development 4:1823). When these cells are stimulated with phorbol esters which activate protein kinase C and calcium ionophore to raise the intracellular calcium concentration, transcriptionally active NF-AT is produced. In T-cells, this normally leads to the expression of IL-2, T-cell growth factor. However, in FGL-5 cells NF-AT activation leads to the production of β-galactosidase which can be detected using an appropriate substrate. […] NF-AT Inhibition Assay Directed β-Galactosidase Expression This assay was performed essentially as described (Bierer et al., 1990, Proc. Natl. Acad. Sci. 87:9231). […] The assays were done with exponentially growing cells whose density was not greater than 0.5 million cells/ml. The cells were resuspended to 3 million cells/ml in medium and 0.1 ml was added to wells of a 96-well plate. The compounds of the present invention were dissolved in either ethanol or dimethylsulfoxide at 10 mM and […] of various dilutions in medium were added to cells in duplicate wells. Treatment controls consisted of duplicate wells containing 0.5 ml/well of either medium, ethanol or dimethylsulfoxide. The ethanol and dimethyl sulfoxide were at the same concentration as was used for the compounds. […] Phorbol dibutyrate (Sigma) and Ionomycin (Calbiochem) were dissolved at 50 μg/ml and 2 mM, respectively and stored at -70° C. […] For unstimulated cell controls, 0.5 ml/well of medium was added to duplicate wells. The plates were incubated overnight (16-18 hours) at 37° C. in a humidified atmosphere of 5% CO2 and air. β-galactosidase activity was measured as the fluorescence generated by the cleavage of 4-methyl umbelliferyl-β-D-galactoside (Sigma) at the β-galactoside bond. After overnight incubation, the cells were centrifuged at 500×g for 3 minutes in the 96-well plates and washed 3 times with PBS. […] The percent inhibition by each concentration of the compounds was calculated as: […]

FKBP = FKBP (Homo sapiens, UniProt P62942); assay: PPIase Inhibition Assay; assay type: biochemical
FKBP, sequence (P62942 whole entry): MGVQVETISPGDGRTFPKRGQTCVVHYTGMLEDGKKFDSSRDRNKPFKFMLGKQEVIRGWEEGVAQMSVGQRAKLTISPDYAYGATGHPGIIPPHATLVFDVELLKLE
Method: 1) Inhibition of PPIase Activity
This assay follows in principle the procedure described in Kofron et al., 1991, Biochemistry 30:6127.
The three main reagents used are PPIase, a substrate for PPIase, and a selected inhibitor compound of the present invention. The basic principle behind this assay is the conversion of the cis isomer of the substrate to the trans form, which conversion is catalyzed by PPIase. Essentially, inhibition of this PPIase activity is measured for the selected compounds. A peptide chymotrypsin substrate containing a proline in the P2 position is only cleaved by chymotrypsin when the Phe-Pro bond is in the trans isomeric configuration. In the presence of excess chymotrypsin, all of the trans peptide isomers are cleaved within approximately five seconds, leaving only cis forms.
The cis peptide will spontaneously convert to the trans isomer at a slow rate. The cis to trans conversion is catalyzed by isomerases at a much faster rate than this spontaneous conversion. Proteins with PPIase activity are examples of such isomerases. After isomerization, the peptide is cleaved by chymotrypsin releasing p-nitroaniline which can be monitored at 390 nm. The rate of release is then calculated using a first order rate plus offset equation utilizing the ENZFITTER program (Leatherbarrow, BIOSOFT, Cambridge, United Kingdom).
In a plastic cuvette are added 950 ul of ice cold assay buffer (25 mM HEPES, pH 7.8, 100 mM NaCl), 10 uL of FKBP (2.5 uM in 10 mM Tris-Cl pH 7.5, 100 mM NaCl, 1 mM dithiothreitol), 25 ul of chymotrypsin (50 mg/ml in 1 mM HCl) and 10 ul of the test compound at various concentrations in dimethyl sulphoxide. The reaction is initiated by addition of 5 ul of substrate (Succinyl-Ala-Phe-Pro-Phe-para-nitroanilide, 5 mg/ml in 235 mM LiCl in trifluoroethanol).
The absorbance at 390 nm versus time is monitored for 90 sec using a Beckman DU70 spectrophotometer. The absorbance versus time data files are transferred to an IBM XT computer and the rate constants determined using the commercial enzfitter program. For each set of data, the uncatalyzed rate of conversion is measured and the uninhibited enzymatic rate determined. The data are expressed as % Activity remaining and are calculated as follows:
% Activity Remaining=(kobs -kuncat)/(kuninh
where kobs is the rate in the presence of a selected test compound, kuncat is the rate in the absence of enzyme, and kuninh is the rate in the presence of enzyme
Data was plotted as the velocity in the absence of the inhibitor (V-) divided by the velocity in the presence of inhibitor (V+) versus the inhibitor concentration. The IC50 can be determined following linear regression as the inhibitor concentration where

human T-cells = assay: Suppression of Human T-Cell Proliferation Assay (PHA-stimulated, [3H]-thymidine incorporation); assay type: cell-based; settings: read-out: IC50
Text: 2) Human T Lymphocyte Inhibition
Inhibition of mitogen-induced T-cell proliferation can be used to profile immunosuppressive activity of test compounds. In the description of the assay which follows, mitogen-induced T-cell activation was used to test the inhibitory potencies of select compounds of the present invention.
In an assay similar to that described by Bradley in Mishell et al. (Eds.), 1980, Selected Methods in Cellular Immunology, pp 156-161, W. H. Freeman & Co., San Fransisco, Calif., T-cells were stimulated by incubation with phytohemagglutinin (PHA) which binds to cell surface molecules, including the T-cell receptor. This stimulation results in proliferation which can be measured by incorporation of [^3 H]-thymidine into cellular DNA.
The immunosuppressive properties of the compounds of the present invention can be determined by adding various concentrations of the compounds to these cultures and measuring the effect on T-cell proliferation.
Suppression of Human T-Cell Proliferation Assay
Fresh LeukoPaks were obtained from the New York Blood Center, New York, N.Y. The cells, including erythrocytes and leukocytes, were diluted with Hank's Balanced Salt Solution (HBSS) (GIBCO, Grand Island, N.Y.) and layered over Lymphoprep (Nycomed Pharma AS, Oslo, Norway) in sterile 50 ml conical centrifuge tubes. Lymphocytes were isolated at the Hank's/Nycomed interface after centrifugation at 2000×g, 4° C. for 15 min. The lymphocytes were washed with Minimal Essential Medium (GIBCO) containing 2% fetal bovine serum (FBS) (Sigma Chemical Co., St. Louis, Mo.), 1% HEPES buffer (GIBCO) and 1% Penicillin-Stretomycin solution (GIBCO).
T-cells were further purified essentially by sheep erythrocyte (SRBC) rosetting as described by Morimoto et al., 1983, J. Immunol. 130:157. The isolated lymphocytes were adjusted to 2×10^7 cells/ml and 5 ml aliquots of the cell suspension were incubated for 10 minutes at room temperature with 5 ml of a 5% SRBC (Cappel, Organon Technika Corp., West Chester, Pa.) suspension. The cells were gently pelleted by centrifugation at 300 rpm for 10 minutes, followed by a 1 hour incubation at room temperature to allow rosette formation. The cells were gently resuspended,layered over Lymphoprep and centrifuged for 30 minutes at 500×g. The pellet, containing rosetted T-cells and SRBC was treated with ice cold buffered ammonium chloride (GIBCO) to lyse the erythrocytes. T-cells were washed twice with HBSS.
Purified T-cells were resuspended at 2×10^6 cells/ml in complete culture medium composed of RPMI-1640 (Whittaker Bioproducts, Walkerville, Md.) with 10% FBS (Sigma), 2 mM L-glutamine (GIBCO), 1% Penicillin-Streptomycin (GIBCO) and 15 mM HEPES (GIBCO). In 96-well plates (Becton Dickinson, Lincoln Park, N.J.), 0.1 ml aliquots of T-cell suspension were mixed with 0.05 ml of 40 μg/ml PHA-M (Sigma). The compounds of this invention were dissolved in dimethylsulfoxide at 10 mM and various dilutions in complete medium were added in duplicate wells (0.05 ml/well). The plates were incubated at 37° C. in a humidified atmosphere of 5% carbon dioxide and 95% air for 72 hours.
Proliferation was assessed by measurement of [^3 H]-thymidine incorporation. During the last 6 hours of incubation, the cells were pulse labelled with 1 μCi/well of [^3 H]-thymidine (New England Nuclear, Boston, Mass.). The cells were harvested onto glass fiber paper using a plate harvester and the radioactivity incorporated into cellular DNA corresponding to individual wells was measured by standard liquid scintillation counting methods.

[1] = 50% inhibition of NF-AT directed β-galactosidase activity in FGL-5 cells stimulated with phorbol dibutyrate and ionomycin, TABLE 3
[2] = concentration of inhibitor required for 50% inhibition of enzyme activity, FKBP, substrate Succinyl-Ala-Phe-Pro-Phe-para-nitroanilide, TABLE I
[3] = concentration inhibiting [3H]-thymidine incorporation of PHA-stimulated T-cells by 50%, 72 hours, TABLE 2

Molecule	IC50 (NF-AT; [1]) [µM]	IC50 (FKBP; [2]) [µM]	IC50 (human T-cells; [3]) [µM]	IC50 (NF-AT) [µM]	IC50 (human T-cells) [µM]	IC50 (FKBP) [µM]
CC[C@H](C)[C@H](NC(=O)[C@@H]1CCCN1CC(=O)C12CC3CC(CC(C3)C1)C2)C(=O)NCc1ccc(OC)cc1 [Example 69, L-Isoleucine, N-[1-(2-Adamantan-1-yl-2-Oxoethyl)-L-Prolyl] 4-methoxybenzylamide]	16	0.2	8	–	–	–
COc1cc(C(=O)CN2CCC[C@H]2C(=O)NC(C)(C)C)cc(OC)c1OC [Example 143, L-Proline, 1-[2-(3,4,5-Trimethoxyphenyl)-2-Oxoethyl] tert-Butylamide Hydrochloride]	> 33	> 5	3	–	–	–
L-Isoleuclne, N-[1-(2-(1-Methyl-Cyclohexyl)-2-Oxoethyl)-L-Prolyl] Benzylamide [Example 44]	–	–	–	24	12	–
CC[C@H](C)[C@H](NC(=O)[C@@H]1CCCN1CC(=O)N1CCN(c2ccccc2)CC1)C(=O)NCc1ccccc1 [Example 77, L-Isoleucine, N-[1-[2-(4-Phenylpiperazine)-2-Oxoethyl]-L-Prolyl] Benzylamlde]	–	< 5	28	–	–	–
CC[C@H](C)[C@H](NC(=O)[C@@H]1CCCN1CC(=O)c1ccc(OC)cc1)C(=O)NCc1ccccc1 [Example 15, L-Isoleucine, N-[1-(2-(4-Methoxylphenyl)-2-Oxoethyl)-L-Prolyl] Benzylamide]	–	< 50	17	–	–	–
CC[C@H](C)[C@H](NC(=O)[C@@H]1CCCN1C(C)C(=O)c1ccccc1)C(=O)NCc1ccccc1 (stereo partly drawn) [Example 19, L-Isoleucine, N-[1-(1-Methyl-2-Phenyl-2-Oxoethyl)-L-Prolyl] Benzylamide]	–	< 50	18	–	–	–
CC[C@H](C)[C@H](NC(=O)[C@@H]1CCCN1CC(=O)c1ccc(-c2ccccc2)cc1)C(=O)NC(C)(C)C [Example 52, L-Isoleucine, N-[1-(2-(Biphenyl-4-yl)-2-Oxoethyl)-L-Prolyl] tert-Butylamide]	–	–	–	–	> 50	< 50

Continued, in another order:

IC50 (NF-AT; [1]) [µM]	IC50 (FKBP; [2]) [µM]	Molecule	IC50 (human T-cells; [3]) [µM]	IC50 (NF-AT) [µM]	IC50 (human T-cells) [µM]	IC50 (FKBP) [µM]
> 15	< 5	CC[C@H](C)[C@H](NC(=O)[C@@H]1CCCN1CC(=O)c1cccc(OC)c1OC)C(=O)NCc1ccccc1 [Example 111, L-Isoleucine, N-[1-(2-(2,3-Dimethoxyphenyl)-2-Oxoethyl)-L-Prolyl] Benzylamide]	7	–	–	–
> 33	> 5	COc1cc(C(=O)CN2CCC[C@H]2C(=O)NC(Cc2ccccc2)c2ccccc2)cc(OC)c1OC (stereo partly drawn) [Example 144, L-Proline, 1-[2-(3,4,5-Trimethoxyphenyl)-2-Oxoethyl] 1,2-DiphenylethylamideHydrochloride]	19	–	–	–
> 15	–	CC[C@H](C)[C@H](NC(=O)[C@@H]1CCCCN1CC(=O)c1cc(OC)c(OC)c(OC)c1)C(=O)NCc1ccccc1 [Example 153, L-Isoleucine, N-[1-(2-(3,4,5-Trimethoxyphenyl)-2-Oxoethyl)-L-Homoprolyl] Benzylamide]	> 15	–	–	–
> 15	> 5	COc1cc(C(=O)CN2CCC[C@H]2C(=O)NCCCCc2ccccc2)cc(OC)c1OC [Example 123, L-Proline, 1-[2-(3,4,5-Trimethoxyphenyl)-2-Oxoethyl] 4-Phenylbutylamide Hydrochloride]	10	–	–	–
> 15	> 5	COc1cc(C(=O)CN2CCCC[C@H]2C(=O)N[C@H](/C=C/c2ccccc2)CC(C)C)cc(OC)c1OC [Example 151, L-Homoproline, 1-[2-(3,4,5-Trimethoxyphenyl)-2-Oxoethyl] (1-(S)-[2'-(S)-methylpropyl]-3-phenylprop-2-E-enyl)-amide]	4	–	–	–
> 15	> 5	COc1cc(C(=O)CN2CCC[C@H]2C(=O)NCCc2ccc(N)cc2)cc(OC)c1OC [Example 125, L-Proline, 1-[2-(3,4,5-Trimethoxyphenyl)-2-Oxoethyl] 2-(4-aminophenyl)ethylamide Dihydrochloride]	> 15	–	–	–
